Test results taken from the supplement of paper PMC10307832.

How the values were obtained:
Assay in all cases: relative viability (nuclei count vs DMSO), 5 days (fraction); higher = more cells survive
17-AAG + Linsitinib = compound: C=CCNC1=C2C[C@@H](C)C[C@H](OC)[C@H](O)[C@@H](C)/C=C(\C)[C@H](OC(N)=O)[C@@H](OC)/C=C\C=C(/C)C(=O)NC(=CC1=O)C2=O [17-AAG] + C[C@]1(O)C[C@@H](c2nc(-c3ccc4ccc(-c5ccccc5)nc4c3)c3c(N)nccn32)C1 [Linsitinib] (partner 1 µM)
In short: (§1)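 The day after seeding in 1536-well plates, lung cancer cell lines were treated by pin tool with a single drug, or with a fixed anchor-drug dose together with five library-drug doses (not always all listed) in √10 steps. After 5 days, a combined fix-and-stain solution (final 0.05% Triton X-100, 1% formaldehyde, 1 ug/ml Hoechst) was added. Nuclei counted on 4× images gave relative viability as treated counts over vehicle counts, reported as the median of duplicate plates.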

17-AAG + Pictilisib = compound: C=CCNC1=C2C[C@@H](C)C[C@H](OC)[C@H](O)[C@@H](C)/C=C(\C)[C@H](OC(N)=O)[C@@H](OC)/C=C\C=C(/C)C(=O)NC(=CC1=O)C2=O [17-AAG] + CS(=O)(=O)N1CCN(Cc2cc3nc(-c4cccc5[nH]ncc45)nc(N4CCOCC4)c3s2)CC1 [Pictilisib] (partner 1 µM)
In short: as §1

17-AAG + Lapatinib = compound: C=CCNC1=C2C[C@@H](C)C[C@H](OC)[C@H](O)[C@@H](C)/C=C(\C)[C@H](OC(N)=O)[C@@H](OC)/C=C\C=C(/C)C(=O)NC(=CC1=O)C2=O [17-AAG] + CS(=O)(=O)CCNCc1ccc(-c2ccc3ncnc(Nc4ccc(OCc5cccc(F)c5)c(Cl)c4)c3c2)o1 [Lapatinib] (partner 2 µM)
In short: as §1

17-AAG + Bortezomib = compound: C=CCNC1=C2C[C@@H](C)C[C@H](OC)[C@H](O)[C@@H](C)/C=C(\C)[C@H](OC(N)=O)[C@@H](OC)/C=C\C=C(/C)C(=O)NC(=CC1=O)C2=O [17-AAG] + CC(C)C[C@H](NC(=O)[C@H](Cc1ccccc1)NC(=O)c1cnccn1)B(O)O [Bortezomib] (partner 0.002 µM)
In short: as §1

17-AAG + Crizotinib = compound: C=CCNC1=C2C[C@@H](C)C[C@H](OC)[C@H](O)[C@@H](C)/C=C(\C)[C@H](OC(N)=O)[C@@H](OC)/C=C\C=C(/C)C(=O)NC(=CC1=O)C2=O [17-AAG] + C[C@@H](Oc1cc(-c2cnn(C3CCNCC3)c2)cnc1N)c1c(Cl)ccc(F)c1Cl [Crizotinib] (partner 1 µM)
In short: as §1

17-AAG + AZD7762 = compound: C=CCNC1=C2C[C@@H](C)C[C@H](OC)[C@H](O)[C@@H](C)/C=C(\C)[C@H](OC(N)=O)[C@@H](OC)/C=C\C=C(/C)C(=O)NC(=CC1=O)C2=O [17-AAG] + NC(=O)Nc1cc(-c2cccc(F)c2)sc1C(=O)N[C@H]1CCCNC1 [AZD7762] (partner 0.2 µM)
In short: as §1

17-AAG + Alpelisib = compound: C=CCNC1=C2C[C@@H](C)C[C@H](OC)[C@H](O)[C@@H](C)/C=C(\C)[C@H](OC(N)=O)[C@@H](OC)/C=C\C=C(/C)C(=O)NC(=CC1=O)C2=O [17-AAG] + Cc1nc(NC(=O)N2CCC[C@H]2C(N)=O)sc1-c1ccnc(C(C)(C)C(F)(F)F)c1 [Alpelisib] (partner 2 µM)
In short: as §1

17-AAG + Olaparib = compound: C=CCNC1=C2C[C@@H](C)C[C@H](OC)[C@H](O)[C@@H](C)/C=C(\C)[C@H](OC(N)=O)[C@@H](OC)/C=C\C=C(/C)C(=O)NC(=CC1=O)C2=O [17-AAG] + O=C(c1cc(Cc2n[nH]c(=O)c3ccccc23)ccc1F)N1CCN(C(=O)C2CC2)CC1 [Olaparib] (partner 8 µM)
In short: as §1

17-AAG + Navitoclax = compound: C=CCNC1=C2C[C@@H](C)C[C@H](OC)[C@H](O)[C@@H](C)/C=C(\C)[C@H](OC(N)=O)[C@@H](OC)/C=C\C=C(/C)C(=O)NC(=CC1=O)C2=O [17-AAG] + CC1(C)CCC(c2ccc(Cl)cc2)=C(CN2CCN(c3ccc(C(=O)NS(=O)(=O)c4ccc(N[C@H](CCN5CCOCC5)CSc5ccccc5)c(S(=O)(=O)C(F)(F)F)c4)cc3)CC2)C1 [Navitoclax] (partner 0.5 µM)
In short: as §1

17-AAG + Foretinib = compound: C=CCNC1=C2C[C@@H](C)C[C@H](OC)[C@H](O)[C@@H](C)/C=C(\C)[C@H](OC(N)=O)[C@@H](OC)/C=C\C=C(/C)C(=O)NC(=CC1=O)C2=O [17-AAG] + COc1cc2c(Oc3ccc(NC(=O)C4(C(=O)Nc5ccc(F)cc5)CC4)cc3F)ccnc2cc1OCCCN1CCOCC1 [Foretinib] (partner 0.25 µM)
In short: as §1

17-AAG = compound: C=CCNC1=C2C[C@@H](C)C[C@H](OC)[C@H](O)[C@@H](C)/C=C(\C)[C@H](OC(N)=O)[C@@H](OC)/C=C\C=C(/C)C(=O)NC(=CC1=O)C2=O [17-AAG]
In short: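 Five library-drug doses, separated by factors of √10, were pinned into 1536-well plates holding lung cancer cell lines after an overnight stay at 37 °C. Cells were fixed, permeabilised and Hoechst-stained in one step after 5 days without medium change, then imaged at 4×. Viability compares treated-well with vehicle-well nuclei, counted in MetaXpress, as a median across plates. Passing plates had control CV below 25% and at least one doubling.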

NCI-H1703
relative viability (17-AAG + Linsitinib; first compound 0.00128 µM): 0.3
relative viability (17-AAG + Linsitinib; first compound 0.004048 µM): 0.687
relative viability (17-AAG + Linsitinib; first compound 0.0128 µM): 0.115
relative viability (17-AAG + Linsitinib; first compound 0.04048 µM): 0.148
relative viability (17-AAG + Linsitinib; first compound 0.128 µM): 0.0982
relative viability (17-AAG + Pictilisib; first compound 0.00128 µM): 0.235
relative viability (17-AAG + Pictilisib; first compound 0.004048 µM): 0.181
relative viability (17-AAG + Pictilisib; first compound 0.0128 µM): 0.188
relative viability (17-AAG + Pictilisib; first compound 0.04048 µM): 0.168
relative viability (17-AAG + Pictilisib; first compound 0.128 µM): 0.141
relative viability (17-AAG + Lapatinib; first compound 0.00128 µM): 0.998
relative viability (17-AAG + Lapatinib; first compound 0.004048 µM): 0.315
relative viability (17-AAG + Lapatinib; first compound 0.0128 µM): 0.182
relative viability (17-AAG + Lapatinib; first compound 0.04048 µM): 0.176
relative viability (17-AAG + Lapatinib; first compound 0.128 µM): 0.208
relative viability (17-AAG + Bortezomib; first compound 0.00128 µM): 0.316
relative viability (17-AAG + Bortezomib; first compound 0.004048 µM): 0.154
relative viability (17-AAG + Bortezomib; first compound 0.0128 µM): 0.145
relative viability (17-AAG + Bortezomib; first compound 0.04048 µM): 0.153
relative viability (17-AAG + Bortezomib; first compound 0.128 µM): 0.138
relative viability (17-AAG + Crizotinib; first compound 0.00128 µM): 0.611
relative viability (17-AAG + Crizotinib; first compound 0.004048 µM): 0.634
relative viability (17-AAG + Crizotinib; first compound 0.0128 µM): 0.129
relative viability (17-AAG + Crizotinib; first compound 0.04048 µM): 0.151
relative viability (17-AAG + Crizotinib; first compound 0.128 µM): 0.119
relative viability (17-AAG + AZD7762; first compound 0.00128 µM): 0.114
relative viability (17-AAG + AZD7762; first compound 0.004048 µM): 0.156
relative viability (17-AAG + AZD7762; first compound 0.0128 µM): 0.113
relative viability (17-AAG + AZD7762; first compound 0.04048 µM): 0.109
relative viability (17-AAG + AZD7762; first compound 0.128 µM): 0.134
relative viability (17-AAG + Alpelisib; first compound 0.00128 µM): 0.366
relative viability (17-AAG + Alpelisib; first compound 0.004048 µM): 0.152
relative viability (17-AAG + Alpelisib; first compound 0.0128 µM): 0.141
relative viability (17-AAG + Alpelisib; first compound 0.04048 µM): 0.155
relative viability (17-AAG + Alpelisib; first compound 0.128 µM): 0.134
relative viability (17-AAG + Olaparib; first compound 0.00128 µM): 0.512
relative viability (17-AAG + Olaparib; first compound 0.004048 µM): 0.183
relative viability (17-AAG + Olaparib; first compound 0.0128 µM): 0.144
relative viability (17-AAG + Olaparib; first compound 0.04048 µM): 0.164
relative viability (17-AAG + Olaparib; first compound 0.128 µM): 0.105
relative viability (17-AAG + Navitoclax; first compound 0.00128 µM): 0.961
relative viability (17-AAG + Navitoclax; first compound 0.004048 µM): 0.22
relative viability (17-AAG + Navitoclax; first compound 0.0128 µM): 0.16
relative viability (17-AAG + Navitoclax; first compound 0.04048 µM): 0.162
relative viability (17-AAG + Navitoclax; first compound 0.128 µM): 0.125
relative viability (17-AAG + Foretinib; first compound 0.00128 µM): 0.325
relative viability (17-AAG + Foretinib; first compound 0.004048 µM): 0.331
relative viability (17-AAG + Foretinib; first compound 0.0128 µM): 0.215
relative viability (17-AAG + Foretinib; first compound 0.04048 µM): 0.229
relative viability (17-AAG + Foretinib; first compound 0.128 µM): 0.191
relative viability (17-AAG; 0.00128 µM): 0.911
relative viability (17-AAG; 0.004048 µM): 0.734
relative viability (17-AAG; 0.0128 µM): 0.173
relative viability (17-AAG; 0.04048 µM): 0.191
relative viability (17-AAG; 0.128 µM): 0.145
